Reference: patent publication US20250230138A1, “COMPOUNDS HAVING A T-STRUCTURE FORMED BY AT LEAST FOUR CYCLES FOR USE IN THE TREATMENT OF CANCER AND OTHER INDICATIONS” (TheRas, Inc., priority 2022, published 2025)
Like-named read-outs stand apart in the source and are kept apart here.

How the values were obtained:
pAKT in BT474 cells = test: Cell-based pAKT HTRF assay in BT474 cells; details: BT474 cells, 4 hr incubation, Compounds 10-999, read-out: pAKT inhibition IC50 in BT474 cells
Procedure, shortened: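 The HTRF signal (excitation 320 nm, emission 615 nm) came from d2/Eu Cryptate antibodies added to lysates and incubated 4–24 h at room temperature. Those lysates were taken from cells treated for 4 hr with compound, top concentration 3 μM, in 0.25% DMSO.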

[1] = biological target: Cys242 in human PIK3CA (157-299) (Homo sapiens (Human), UniProt P42336); test: Covalent modification assay using MALDI-TOF MS; assay type: biochemical; details: 4 h reaction time point; 3.33 μM protein target, 1:7.5 protein to compound ratio (compounds 1-852)
Sequence of Cys242 in human PIK3CA (157-299) (P42336 157-299): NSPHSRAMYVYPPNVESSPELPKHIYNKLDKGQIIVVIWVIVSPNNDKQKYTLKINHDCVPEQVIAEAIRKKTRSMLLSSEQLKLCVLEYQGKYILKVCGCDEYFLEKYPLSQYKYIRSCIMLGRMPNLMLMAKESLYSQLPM
Procedure, shortened: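 PIK3CA (157-299) at 3.33 μM or 1 μM in 20 mM HEPES, 150 mM NaCl, 2 mM MgCl2, pH 7.3 was incubated with compound (from 10 mM DMSO stocks) in the dark at room temperature for 15 min, 30 min, 2 h or 4 h. Linear-mode MALDI-TOF peak heights gave percent modification.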

SMILES	IC50 (pAKT in BT474 cells)	IC50 (pAKT in BT474 cells; Homo sapiens, BT-474)	% of modification [1]
C=CC(=O)N1Cc2cc(-c3nc(-c4cnnc(C)c4)c4ccsc4c3-c3c(F)cc(F)cc3OCCO)nn2C(C)C1 (centres unmarked) [Compound 787]	100 to 1000 nM		D (percent of modification <25%)
C=CC(=O)N1Cc2cc(-c3nc(-c4cnnc(C)c4)c4ccsc4c3-c3c(F)cc(F)cc3OCCO)nn2C(C)C1 (centres unmarked) [Compound 788]	< 100 nM		A (percent of modification of PIK3CA protein ≥75%)
C=CC(=O)N1Cc2cc(-c3nc(-c4ccc5c(c4)CCS5(=O)=O)c4ccsc4c3-c3c(F)cc(F)cc3OCCOC)nn2C[C@H]1C [Compound 794]	> 3000 nM		A (percent of modification of PIK3CA protein ≥75%)
C=CC(=O)N1Cc2cc(-c3nc(-c4ccc5c(c4)CN(C)C5=O)c4ccsc4c3-c3c(F)cc(F)cc3OCCOC)nn2C[C@H]1C [Compound 795]	< 100 nM		A (percent of modification of PIK3CA protein ≥75%)
C=CC(=O)N1Cc2cc(-c3nc(-c4ccc(P(C)(C)=O)cc4)c4ccsc4c3-c3c(F)cc(F)cc3OCCOC)nn2C[C@H]1C [Compound 800, 1-[(6R)-2-[7-[2,4-difluoro-6-(2-methoxyethoxy)phenyl]-4-(4-dimethylphosphorylphenyl)thieno[3,2-c]pyridin-6-yl]-6-methyl-6,7-dihydro-4H-pyrazolo[1,5-a]pyrazin-5-yl]prop-2-en-1-one]		< 100 nM	A (percent of modification of PIK3CA protein ≥75%)
C=CC(=O)N1Cc2cc(-c3nc(-c4cn(C)cn4)c4ccsc4c3-c3c(F)cc(F)cc3OCCO)nn2[C@@H](C)C1 [Compound 819]	< 100 nM		A (percent of modification of PIK3CA protein ≥75%)
C=CC(=O)N1Cc2cc(-c3nc(-c4cnn(C)c4)c4ccsc4c3-c3c(F)cc(F)cc3OC)nn2C[C@H]1C [Compound 820]	< 100 nM		A (percent of modification of PIK3CA protein ≥75%)
C=CC(=O)N1Cc2cc(-c3nc(-c4ccc5nn(C)cc5c4)c4ccsc4c3-c3c(F)cc(F)cc3OC)nn2C[C@H]1C [Compound 821]	< 100 nM		A (percent of modification of PIK3CA protein ≥75%)

The next lines start with results.

IC50 (pAKT in BT474 cells)	IC50 (pAKT in BT474 cells; Homo sapiens, BT-474)	SMILES	% of modification [1]
< 100 nM		C=CC(=O)N1CCn2nc(-c3nc(-c4ccc5oc(C)nc5c4)c4ccsc4c3-c3c(F)cc(F)cc3OCCO)cc2C1C (centres unmarked) [Compound 789]	A (percent of modification of PIK3CA protein ≥75%)
< 100 nM		C=CC(=O)N1CCn2nc(-c3nc(-c4cnnc(C)c4)c4ccsc4c3-c3c(F)cc(F)cc3OCCOC)cc2C1C (centres unmarked) [Compound 790]	A (percent of modification of PIK3CA protein ≥75%)
< 100 nM		C=CC(=O)N1CCn2nc(-c3nc(-c4cnc(C)nc4)c4ccsc4c3-c3c(F)cc(F)cc3OCC(C)O)cc2C1C (centres unmarked) [Compound 791]	A (percent of modification of PIK3CA protein ≥75%)
< 100 nM		C=CC(=O)N1CCn2nc(-c3nc(-c4cnc(C)nc4)c4ccsc4c3-c3c(F)cc(F)cc3OCCOC)cc2C1C (centres unmarked) [Compound 792]	A (percent of modification of PIK3CA protein ≥75%)
< 100 nM		C=CC(=O)N1Cc2cc(-c3nc(-c4cnn(C)c(=O)c4)c4ccsc4c3-c3c(F)cc(F)cc3OCCOC)nn2C[C@H]1C [Compound 793]	A (percent of modification of PIK3CA protein ≥75%)
< 100 nM		C=CC(=O)N1Cc2cc(-c3nc(-c4cnc5c(cnn5C)c4)c4ccsc4c3-c3c(F)cc(F)cc3OCCOC)nn2C[C@H]1C [Compound 797]	A (percent of modification of PIK3CA protein ≥75%)
< 100 nM		C=CC(=O)N1Cc2cc(-c3nc(-c4cnc5cn(C)nc5c4)c4ccsc4c3-c3c(F)cc(F)cc3OCCOC)nn2C[C@H]1C [Compound 818]	A (percent of modification of PIK3CA protein ≥75%)
< 100 nM		C=CC(=O)N1Cc2cc(-c3nc(-c4nc(C)no4)c4ccsc4c3-c3c(F)cc(F)cc3OCCOC)nn2C[C@H]1C [Compound 822]	A (percent of modification of PIK3CA protein ≥75%)
